Assay results from patent publication US9540343B2 (Gilead Sciences, Inc., priority 2011, dated 2017).

Assays:
HIV-IIIb = test: Test A: Antiviral assay in MT4 cells; format: cell-based, HIV-1; details: MT-4 cells infected with HIV-IIIb, 5 days, CellTiter-Glo; for inhibition at 2 µM: Human immunodeficiency virus 1, IIIB, MT4, 120 h, read-out: % inhibition at 2 μM, percent inhibition of virus-induced cell killing, from dose response curve at 2 uM drug
in vitro = details: human, uninfected MT-4 cells, CC50 (nM), same protocol as Test A, CellTiter-Glo
In short: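 Cytoprotection read-out: CellTiter-Glo chemiluminescence after 5 days at 37 °C of HIV-IIIb-infected MT-4 cells (m.o.i. 0.003) with compound in 10-point 3-fold dilutions, quadruplicate, 10% FBS. Cytotoxicity (CC50) measured identically without virus.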

Row | SMILES | inhibition at 2 µM (HIV-IIIb) [%] | CC50 at 5 days (in vitro) [nM] | % inhibition at 2 μM (HIV-IIIb; percent inhibition of virus-induced cell killing, from dose response curve at 2 uM drug) [%]
1 | NC(=O)c1cccc(-c2cccnc2[C@H](Cc2cc(F)cc(F)c2)NC(=O)Cn2nc(C(F)(F)F)c3c2COCC3)c1 [Example 144, (S)-3-(2-(2-(3,5-difluorophenyl)-1-(2-(3-(trifluoromethyl)-4,5-dihydropyrano[3,4-c]pyrazol-1(7H)-yl)acetamido)ethyl)pyridin-3-yl)benzamide] | 89 | > 53000 | –
2 | CC(C)(C)OC(=O)N1C[C@H](OCc2ccccc2)C[C@H]1C(=O)N[C@@H](Cc1cc(F)cc(F)c1)c1ncccc1-c1ccc(F)c(C(N)=O)c1 [Example 145, (2S,4R)-tert-butyl 4-(benzyloxy)-2-((S)-1-(3-(3-carbamoyl-4-fluorophenyl)pyridin-2-yl)-2-(3,5-difluorophenyl)ethylcarbamoyl)pyrrolidine-1-carboxylate] | 0 | 22400 | –
3 | O=C(Cn1[nH]c(=O)c2c1CCCC2)N[C@@H](Cc1cc(F)cc(F)c1)c1ncccc1-c1ccc(Cl)cc1 [Example 146, (S)—N-(1-(3-(4-chlorophenyl)pyridin-2-yl)-2-(3,5-difluorophenyl)ethyl)-2-(3-oxo-2,3,4,5,6,7-hexahydro-1H-indazol-1-yl)acetamide] | 66 | 20600 | –
4 | NC(=O)c1cc(-c2cccnc2[C@H](Cc2cc(F)cc(F)c2)NC(=O)Cn2nc(-n3cccn3)ccc2=O)ccc1F [Example 147, (S)-5-(2-(2-(3,5-difluorophenyl)-1-(2-(6-oxo-3-(1H-pyrazol-1-yl)pyridazin-1(6H)-yl)acetamido)ethyl)pyridin-3-yl)-2-fluorobenzamide] | 10 | > 53200 | –
5 | CC(C)(C)OC(=O)N1C[C@@H](c2ccccc2)C[C@H]1C(=O)N[C@@H](Cc1cc(F)cc(F)c1)c1ncccc1-c1ccc(F)c(C(N)=O)c1 [Example 148, (2S,4R)-tert-butyl 2-((S)-1-(3-(3-carbamoyl-4-fluorophenyl)pyridin-2-yl)-2-(3,5-difluorophenyl)ethylcarbamoyl)-4-phenylpyrrolidine-1-carboxylate] | 11 | 12300 | –
6 | NC(=O)c1cc(-c2cccnc2[C@H](Cc2cc(F)cc(F)c2)NC(=O)Cn2ccnc2-c2ccccc2)ccc1F [Example 149, (S)-5-(2-(2-(3,5-difluorophenyl)-1-(2-(2-phenyl-1H-imidazol-1-yl)acetamido)ethyl)pyridin-3-yl)-2-fluorobenzamide] | 2 | > 53200 | –
7 | NC(=O)c1cc(-c2cccnc2[C@H](Cc2cc(F)cc(F)c2)NC(=O)Cn2nc(C(F)(F)F)c3c2CCC(F)(F)C3)ccc1F [Example 150, (S)-5-(2-(1-(2-(5,5-difluoro-3-(trifluoromethyl)-4,5,6,7-tetrahydro-1H-indazol-1-yl)acetamido)-2-(3,5-difluorophenyl)ethyl)pyridin-3-yl)-2-fluorobenzamide] | 15 | 18400 | –
8 | NC(=O)c1cc(-c2cccnc2[C@H](Cc2cc(F)cc(F)c2)NC(=O)Cn2nc3c(c2C(F)(F)F)CCC3)ccc1F [Example 151E, (S)-5-(2-(2-(3,5-difluorophenyl)-1-(2-(3-(trifluoromethyl)-5,6-dihydrocyclopenta[c]pyrazol-2(4H)-yl)acetamido)ethyl)pyridin-3-yl)-2-fluorobenzamide] | 11 | 20300 | –
9 | NC(=O)c1cc(-c2cccnc2[C@H](Cc2cc(F)cc(F)c2)NC(=O)Cc2nc3cccc4c3n2CCC4)ccc1F [Example 152D, (S)-5-(2-(2-(3,5-difluorophenyl)-1-(2-(5,6-dihydro-4H-imidazo[4,5,1-ij]quinolin-2-yl)acetamido)ethyl)pyridin-3-yl)-2-fluorobenzamide] | 81 | 28400 | –
10 | NC(=O)c1cc(-c2cccnc2[C@H](Cc2cc(F)cc(F)c2)NC(=O)C2CCCN2C(=O)C2CCCC2)ccc1F (stereo partly drawn) [Example 153, N—((S)-1-(3-(3-carbamoyl-4-fluorophenyl)pyridin-2-yl)-2-(3,5-difluorophenyl)ethyl)-1-(cyclopentanecarbonyl)pyrrolidine-2-carboxamide] | 10 | 17300 | –
11 | NC(=O)c1cc(-c2cccnc2[C@H](Cc2cc(F)cc(F)c2)NC(=O)Cn2nc(C(F)(F)F)c3c2C(O)C2CC32)ccc1F (stereo partly drawn) [Example 154, 5-(2-((1S)-2-(3,5-difluorophenyl)-1-(2-(5-hydroxy-3-(trifluoromethyl)-3b,4,4a,5-tetrahydro-1H-cyclopropa[3,4]cyclopenta[1,2-c]pyrazol-1-yl)acetamido)ethyl)pyridin-3-yl)-2-fluorobenzamide] | – | 36800 | 90
12 | NC(=O)c1cc(-c2cccnc2[C@H](Cc2cc(F)cc(F)c2)NC(=O)[C@@H]2C[C@@H](OCc3ccccc3)CN2)ccc1F [Example 157, (2S,4R)-4-(benzyloxy)-N—((S)-1-(3-(3-carbamoyl-4-fluorophenyl)pyridin-2-yl)-2-(3,5-difluorophenyl)ethyl)pyrrolidine-2-carboxamide] | 10 | 38300 | –
13 | CC(C)(C)OC(=O)N1[C@@H](C(=O)N[C@@H](Cc2cc(F)cc(F)c2)c2ncccc2-c2ccc(F)c(C(N)=O)c2)CC[C@H]1c1ccccc1 [Example 158, (2R,5S)-tert-butyl 2-((S)-1-(3-(3-carbamoyl-4-fluorophenyl)pyridin-2-yl)-2-(3,5-difluorophenyl)ethylcarbamoyl)-5-phenylpyrrolidine-1-carboxylate] | 0 | 8500 | –
14 | NC(=O)c1cc(-c2cccnc2[C@H](Cc2cc(F)cc(F)c2)NC(=O)Cn2nc(C(F)(F)Oc3ccccc3)c3c2CCCC3)ccc1F [Example 159, (S)-5-(2-(1-(2-(3-(difluoro(phenoxy)methyl)-4,5,6,7-tetrahydro-1H-indazol-1-yl)acetamido)-2-(3,5-difluorophenyl)ethyl)pyridin-3-yl)-2-fluorobenzamide] | 84 | 19100 | –
15 | NC(=O)c1cc(-c2cccnc2[C@H](Cc2cc(F)cc(F)c2)NC(=O)Cn2nc3c(c2C(F)F)CC2CC32)ccc1F (stereo partly drawn) [Example 160, 5-(2-((1S)-1-(2-(3-(difluoromethyl)-4,4-a,5,5a-tetrahydro-2H-cyclopropa[4,5]cyclopenta[1,2-c]pyrazol-2-yl)acetamido)-2-(3,5-difluorophenyl)ethyl)pyridin-3-yl)-2-fluorobenzamide] | 45 | 29300 | –
16 | CC(C)(C)OC(=O)N1C[C@@H](Oc2ccccc2)C[C@H]1C(=O)N[C@@H](Cc1cc(F)cc(F)c1)c1ncccc1-c1ccc(F)c(C(N)=O)c1 [Example 161, (2S,4S)-tert-butyl 2-((S)-1-(3-(3-carbamoyl-4-fluorophenyl)pyridin-2-yl)-2-(3,5-difluorophenyl)ethylcarbamoyl)-4-phenoxypyrrolidine-1-carboxylate] | 0 | 9310 | –
17 | NC(=O)c1cc(-c2cccnc2[C@H](Cc2cc(F)cc(F)c2)NC(=O)COc2ccccc2)ccc1F [Example 164, (S)-5-(2-(2-(3,5-difluorophenyl)-1-(2-phenoxyacetamido)ethyl)pyridin-3-yl)-2-fluorobenzamide] | 2 | 29900 | –
18 | NC(=O)c1cc(-c2cccnc2[C@H](Cc2cc(F)cc(F)c2)NC(=O)[C@@H]2C[C@H](Oc3ccccc3)CN2)ccc1F [Example 165, (2S,4S)—N—((S)-1-(3-(3-carbamoyl-4-fluorophenyl)pyridin-2-yl)-2-(3,5-difluorophenyl)ethyl)-4-phenoxypyrrolidine-2-carboxamide] | 0 | 52500 | –
19 | NC(=O)c1cc(-c2cccnc2[C@H](Cc2cc(F)cc(F)c2)NC(=O)C2CCCN2Cc2ccccc2)ccc1F (stereo partly drawn) [Example 166, 1-benzyl-N—((S)-1-(3-(3-carbamoyl-4-fluorophenyl)pyridin-2-yl)-2-(3,5-difluorophenyl)ethyl)pyrrolidine-2-carboxamide] | 0 | 6360 | –
20 | NC(=O)c1cc(-c2cccnc2[C@H](Cc2cc(F)cc(F)c2)NC(=O)[C@@H]2CC(=O)CN2)ccc1F [Example 167, (S)—N—((S)-1-(3-(3-carbamoyl-4-fluorophenyl)pyridin-2-yl)-2-(3,5-difluorophenyl)ethyl)-4-oxopyrrolidine-2-carboxamide] | 0 | > 53000 | –
21 | NC(=O)c1cc(-c2cccnc2[C@H](Cc2cc(F)cc(F)c2)NC(=O)Cn2nc(C(F)(F)F)cc2C2CCCC2)ccc1F [Example 168B, (S)-5-(2-(1-(2-(5-cyclopentyl-3-(trifluoromethyl)-1H-pyrazol-1-yl)acetamido)-2-(3,5-difluorophenyl)ethyl)pyridin-3-yl)-2-fluorobenzamide] | 21 | 11100 | –
22 | CCn1c(=O)c2c(n1CC(=O)N[C@@H](Cc1cc(F)cc(F)c1)c1ncccc1-c1ccc(F)c(C(N)=O)c1)CCCC2 [Example 170C, (S)-5-(2-(2-(3,5-difluorophenyl)-1-(2-(2-ethyl-3-oxo-2,3,4,5,6,7-hexahydro-1H-indazol-1-yl)acetamido)ethyl)pyridin-3-yl)-2-fluorobenzamide] | 22 | > 53200 | –
23 | CC(C)(C)OC(=O)N1CCC[C@H]1C(=O)N[C@@H](Cc1cc(F)cc(F)c1)c1ncccc1-c1ccc(F)c(C(N)=O)c1 [Example 171, (S)-tert-butyl 2-((S)-1-(3-(3-carbamoyl-4-fluorophenyl)pyridin-2-yl)-2-(3,5-difluorophenyl)ethylcarbamoyl)pyrrolidine-1-carboxylate] | 4 | 11900 | –
